# Measurements as given in patent US20120289452A1, “COMPOSITIONS AND METHODS FOR TREATING AND PREVENTING NECROSIS” (Ilana Nathan, priority 2002, published 2012).
# Residues, ends and D or L forms follow the SMILES beside them. *: point of attachment. MeOSuc = COC(=O)CCC(=O)*; CH2Cl = ClC*
# How the values were obtained:
# U-937 cells [1] = details: elastase inhibitor III without KCN
# U-937 cells [2] = assay: Anti-Fas-induced apoptosis/necrosis in U-937 cells, morphological quantification (acridine orange/ethidium bromide); type: cell-based, Human; details: for effect on anti-Fas-induced apoptotic and necrotic cell death: anti-Fas with or without oligomycin, inhibitor added
# Experimental: (§1) Human promonocytic U-937 cells in logarithmic phase were seeded at a concentration of 4×10^5/ml. Afterwards the cells were washed twice and seeded again in glucose-free RPMI-1640 medium (Beit Haemek, Israel) supplemented with 2 mM pyruvate (Beit Haemek, Israel) and 10% dialyzed FCS (Gibco, BRL) for one hour.
# (§2) The rat pheochromocytoma PC-12 cell line was propagated in DMEM medium (Gibco, BRL), supplemented with 5% heat-inactivated calf serum, 10% heat-inactivated horse serum, and 2 mM L-glutamine. […]. Then the cells were washed twice and maintained in glucose-free RPMI-1640 medium (Beit Haemek, Israel), and supplemented with 2 mM pyruvate and 10% dialyzed FCS for one hour. U-937 and PC-12 cells were incubated with and without 1 μM oligomycin (Sigma) for 45 min, and cells were treated with or without 1.25 μM staurosporine (STS) (Sigma) for an additional seven hours in U-937 cells or five hours in PC-12 cells. Alternatively, cells were treated with or without 100 ng/ml anti-Fas (Upstate biotechnology, USA) for the same time period.
# (§3) 200 μM elastase inhibitor III (MeOSuc-Ala-Ala-Pro-Val-CMK from Calbiochem) when added was administered 30 min before addition of the inducers. The inhibitor was dissolved in DMSO to a concentration of 100 mM. The final concentration of DMSO in the system was 0.2%, and was added to all treatments. In separate experiments, 200 μM of an elastase inhibitor (CE1037, manufactured by Cortech Inc.) was administered 30 min before addition of the inducers. The inhibitor was dissolved in PBS.
# (§4) Cells undergoing morphological changes associated with apoptotic or necrotic cell death were monitored as described by McGahon et al. [Methods Cell Biol, 46: p. 153-85 (1995)]. Briefly, 1 ml of the cells was collected and centrifuged. The pellet was resuspended in a 20-fold dilution of the dye mixture (composed of 100 μg/ml acridine orange and 100 μg/ml ethidium bromide in PBS), placed on a glass slide and viewed on an inverted fluorescence microscope. A minimum of 200 cells was scored for each sample.
# PC-12 cells [3] = assay: STS plus oligomycin-induced necrosis in PC-12 cells, morphological quantification; type: cell-based, rat
# Experimental: as §2
# as §3, with “200 μM elastase inhibitor III (MeOSuc-Ala-Ala-Pro-Val-CMK from Calbiochem) when added was administered 30 min before addition of the inducers.” left out
# as §4
# PC-12 cells [4] = assay: KCN-induced necrosis in PC-12 cells, morphological quantification; type: cell-based, rat
# Experimental: The rat pheochromocytoma PC-12 cell line was propagated in DMEM medium (Gibco, BRL), supplemented with 5% heat-inactivated calf serum, 10% heat-inactivated horse serum, and 2 mM L-glutamine. PC-12 cells in logarithmic phase were seeded at a concentration of 1.2×10^5/well in 24-well plates (Cellstar). Then the cells were washed twice and maintained in glucose-free RPMI-1640 medium (Beit Haemek, Israel), and supplemented with 2 mM pyruvate and 10% dialyzed FCS for one hour. […] Alternatively, cells were treated with or without 100 ng/ml anti-Fas (Upstate biotechnology, USA) for the same time period. U-937 and PC-12 cells cultured in complete RPMI-1640 medium were washed and seeded in glucose-free RPMI-1640 medium, as described above, and treated with or without 0.5 mM KCN (Merck, Germany) for seven hours with U-937 cells, or for five hours with PC-12 cells. […] Cells undergoing morphological changes associated with apoptotic or necrotic cell death were monitored as described by McGahon et al. [Methods Cell Biol, 46: p. […] The pellet was resuspended in a 20-fold dilution of the dye mixture (composed of 100 μg/ml acridine orange and 100 μg/ml ethidium bromide in PBS), placed on a glass slide and viewed on an inverted fluorescence microscope. A minimum of 200 cells was scored for each sample.
# PC-12 cells [5] = assay: STS-induced apoptosis in PC-12 cells, morphological quantification; type: cell-based, rat
# Experimental: as §2, §3, §4
# elastase-like activity [6] = assay: Gelatin substrate gel electrophoresis of lysates of U-937 cells treated with KCN and elastase inhibitor; type: cell-based, Human; details: 5 mM KCN, 200 μM elastase inhibitor, 3 h
# U-937 cells [7] = assay: STS plus oligomycin-induced cell killing in U-937 cells, trypan blue exclusion; type: cell-based, Human
# Experimental: as §1, §2
# 200 μM elastase inhibitor III (MeOSuc-Ala-Ala-Pro-Val-CMK from Calbiochem) when added was administered 30 min before addition of the inducers. […]
# At each time point, cell viability was determined by the trypan blue exclusion method (Daniel C P, Parreira A., et al. Leukemia Res. 11:191-196 (1987). Assays were performed in duplicate.
# elastase-like activity [8] = assay: Gelatin substrate gel electrophoresis of U-937 cell lysates, gel incubated with protease inhibitors; type: biochemical, Human; details: 100 μM inhibitor in gel incubation
# [9] = 1.25 μM STS with 1 μM oligomycin, 100 μM elastase inhibitor
# [10] = lysate of U-937 cells treated with 0.5 mM KCN for 3 h
# [11] = lysate of U-937 cells treated with anti-Fas and oligomycin for 3 h
compound,measurement,setting,value
"COC(=O)CCC(=O)N[C@@H](C)C(=O)N[C@@H](C)C(=O)N1CCC[C@H]1C(=O)N[C@H](C(=O)CCl)C(C)C [elastase inhibitor III, MeOSuc-Ala-Ala-Pro-Val-CMK] (MeOSuc-AAPV-CH2Cl)",cell damage by inhibitor alone,U-937 cells [1],did not cause any cell damage
"CC[C@H]1/C=C/C=C/C[C@@H](C)[C@H](O)[C@@](C)(O)C(=O)[C@@H](C)[C@H](O)[C@@H](C)C(=O)[C@@H](C)[C@H](O)[C@@H](C)/C=C/C(=O)O[C@@H]2[C@H](C)[C@H](CC1)O[C@]1(CC[C@H](C)[C@H](C[C@@H](C)O)O1)[C@H]2C [Oligomycin, oligomycin]",effect of oligomycin by itself on cell death,U-937 cells [2]; 1 μM oligomycin alone,inactive by itself
same,effect of oligomycin by itself on cell death,PC-12 cells [3]; oligomycin alone,inactive by itself
CC(C)(CS(=O)(=O)c1ccc(OC(=O)C(C)(C)c2ccc(C(C)(C)C(=O)Oc3ccc(S(=O)(=O)CC(C)(C)C(=O)O)cc3)cc2)cc1)C(=O)O [CE1037],effect on anti-Fas-induced apoptotic and necrotic cell death,U-937 cells [2],completely abrogated apoptotic as well as necrotic cell death
same,necrotic cell death,PC-12 cells [3]; [9],9%
same,necrotic cell death shifted to apoptotic cell death,PC-12 cells [3]; [9],39%
same,effect on necrosis induced by STS,"PC-12 cells [3]; 1.25 μM STS with 1 μM oligomycin, 200 μM elastase inhibitor",completely abrogated necrosis
same,effect of inhibitor by itself,PC-12 cells [3]; 200 μM elastase inhibitor alone,inactive by itself
same,effect of inhibitor by itself,PC-12 cells [4]; 200 μM inhibitor without KCN,inactive by itself
same,effect on necrosis induced by KCN,"PC-12 cells [4]; 0.5 mM KCN, 200 μM inhibitor",significantly inhibited necrosis
same,effect on apoptosis induced by STS,"PC-12 cells [5]; 1.25 μM STS, 200 μM elastase inhibitor",significantly inhibited apoptosis
same,effect of inhibitor by itself,PC-12 cells [5]; 200 μM elastase inhibitor without STS,inactive by itself
same,band of protease activity when KCN administered with inhibitor,elastase-like activity [6],disappeared
same,effect of inhibitor by itself on cell survival,"U-937 cells [7]; 48 hours, inhibitor alone",slight effect by itself
same,"effect on cell killing induced by STS and oligomycin (cell viability, trypan blue)",U-937 cells [7]; prolonged incubation of 48 hours,significantly inhibited cell killing
"CN[C@@H]1C[C@H]2O[C@@](C)([C@@H]1OC)n1c3ccccc3c3c4c(c5c6ccccc6n2c5c31)C(=O)NC4 [STS, staurosporine]",necrosis,PC-12 cells [3]; 1.25 μM STS with 1 μM oligomycin,about 70%
same,apoptosis,"PC-12 cells [5]; 1.25 μM STS alone, compared to control",about 73%
CC(C)C[C@H](NC(=O)N[C@H](C(=O)N[C@@H](CCC(N)=O)C(=O)N[C@@H](C)C=O)[C@@H]1CCNC(=N)N1)C(=O)O [elastinal],effect on anti-Fas-induced apoptotic and necrotic cell death,U-937 cells [2],had no effect
same,band of protease activity in presence of inhibitor,elastase-like activity [8]; [10],disappeared
same,band of protease activity in presence of inhibitor,elastase-like activity [8]; [11],disappeared
Cc1ccc(S(=O)(=O)N[C@@H](Cc2ccccc2)C(=O)CCl)cc1 [TPCK],band of protease activity in presence of inhibitor,elastase-like activity [8]; [10],not
same,band of protease activity in presence of inhibitor,elastase-like activity [8]; [11],not
